According to patent publication US9708312B2, “Dihydropyrimidinoisoquinolinones and pharmaceutical compositions thereof for the treatment of inflammatory disorders (GPR84 antagonists)” (GALAPAGOS NV, priority 2012, dated 2017):

Target: T1, GPR84 (Homo sapiens, UniProt Q9NQS5)
T1 construct: expressed in transfected cells
Experiment: GPR84 [35S]GTPγS binding assay, HEPES buffer
Format: biochemical
Settings: 3,3′ di indolylmethane at EC80, membranes from stable cell line over expressing GPR84
Description: 1.1. Cell Based Assay: GTp-γ S Binding Assay.
The following assay can be used for determination of GPR84 activation.
The assay is performed in a 96 well plate where the following reagents are added. […] In a last step, 30 μL of a mixture consisting of membranes-GTPγS-SpA beads is added [mixture consists of 20 μg/well membranes derived from stable cell line over expressing GPR84 (membranes are pre-incubated with 0.1 μM GDP for 15 min at 4° C.), 0.1 nM [^35S]GTPγS (Perkin Elmer, NEG030) and 0.5 mg/well PVT-WGA SpA beads (Perkin Elmer, RPNQ0001)]. All components are diluted in assay buffer containing 20 mM HEPES pH 7.4; 5 mM MgCl2; 250 mM NaCl; 0.05% BSA; 75 ug/mL saponin Reactions are incubated for 90 min at room temperature followed by centrifugation at 2000 rpm during 15 min. Plates are read on a Topcount reader (Perkin Elmer) immediately after centrifugation (readout time, 1 min/well).

T1 sequence (Q9NQS5 whole entry): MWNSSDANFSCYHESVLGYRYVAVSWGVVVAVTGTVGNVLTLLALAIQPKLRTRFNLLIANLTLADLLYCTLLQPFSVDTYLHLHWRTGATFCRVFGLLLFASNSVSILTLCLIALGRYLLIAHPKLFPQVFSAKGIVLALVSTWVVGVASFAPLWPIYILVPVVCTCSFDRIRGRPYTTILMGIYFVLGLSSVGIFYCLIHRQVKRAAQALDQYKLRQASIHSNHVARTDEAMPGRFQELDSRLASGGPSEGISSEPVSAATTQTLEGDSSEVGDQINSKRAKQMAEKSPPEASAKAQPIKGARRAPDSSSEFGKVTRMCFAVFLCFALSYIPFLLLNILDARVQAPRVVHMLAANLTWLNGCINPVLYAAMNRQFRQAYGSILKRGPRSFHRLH

Structure (SMILES) | IC50 [nM]
O=c1nc(OCC2CCCO2)cc2n1CCc1cc(OCCOCc3ccccc3)ccc1-2 (stereo not drawn) [compound 51, 9-(2-benzyloxy-ethoxy)-2-(tetrahydro-furan-2-ylmethoxy)-6,7-dihydro-pyrimido[6,1-a]isoquinolin-4-one] | 0.01 to 100
O=c1nc(OCC2CCCO2)cc2n1CCc1cc(OCC3CCCO3)ccc1-2 (stereo not drawn) [compound 52, 2,9-bis-(tetrahydro-furan-2-ylmethoxy)-6,7-dihydro-pyrimido[6,1-a]isoquinolin-4-one] | 500 to 1000
O=c1nc(OCC2COc3ccccc3O2)cc2n1CCc1cc(OCC3CCCO3)ccc1-2 (stereo not drawn) [compound 54, 2-(2,3-dihydro-benzo[1,4]dioxin-2-ylmethoxy)-9-(tetrahydro-furan-2-ylmethoxy)-6,7-dihydro-pyrimido[6,1-a]isoquinolin-4-one] | 0.01 to 100
Cn1cc(-c2cccc(COc3ccc4c(c3)CCn3c-4cc(OCC4CCCO4)nc3=O)n2)cn1 (stereo not drawn) [compound 55, 9-[6-(1-methyl-1H-pyrazol-4-yl)-pyridin-2-ylmethoxy]-2-(tetrahydro-furan-2-ylmethoxy)-6,7-dihydro-pyrimido[6,1-a]isoquinolin-4-one] | 100 to 500
O=c1nc(OCC2CCCO2)cc2n1CCc1cc(OCc3cccc(-c4ccoc4)n3)ccc1-2 (stereo not drawn) [compound 56, 9-(6-furan-3-yl-pyridin-2-ylmethoxy)-2-(tetrahydro-furan-2-ylmethoxy)-6,7-dihydro-pyrimido[6,1-a]isoquinolin-4-one] | 0.01 to 100
O=c1nc(OCC2CCCO2)cc2n1CCc1cc(OCc3nnnn3C3CC3)ccc1-2 (stereo not drawn) [compound 58, 9-(1-cyclopropyl-1H-tetrazol-5-ylmethoxy)-2-(tetrahydro-furan-2-ylmethoxy)-6,7-dihydro-pyrimido[6,1-a]isoquinolin-4-one] | 100 to 500
O=C(COc1ccc2c(c1)CCn1c-2cc(OCC2CCCO2)nc1=O)Nc1ccccc1 (stereo not drawn) [compound 63, 2-[4-oxo-2-(tetrahydro-furan-2-ylmethoxy)-6,7-dihydro-4H-pyrimido[6,1-a]isoquinolin-9-yloxy]-N-phenyl-acetamide] | 0.01 to 100
CCCn1nnnc1COc1ccc2c(c1)CCn1c-2cc(OCC2CCCO2)nc1=O (stereo not drawn) [compound 64, 9-(1-propyl-1H-tetrazol-5-ylmethoxy)-2-(tetrahydro-furan-2-ylmethoxy)-6,7-dihydro-pyrimido[6,1-a]isoquinolin-4-one] | 100 to 500
O=c1nc(OCC2CCCO2)cc2n1CCc1cc(OCc3ncco3)ccc1-2 (stereo not drawn) [compound 65, 9-(oxazol-2-ylmethoxy)-2-(tetrahydro-furan-2-ylmethoxy)-6,7-dihydro-pyrimido[6,1-a]isoquinolin-4-one] | 500 to 1000
CCN(CC)C(=O)COc1ccc2c(c1)CCn1c-2cc(OCC2COc3ccccc3O2)nc1=O (stereo not drawn) [compound 66, 2-[2-(2,3-dihydro-benzo[1,4]dioxin-2-ylmethoxy)-4-oxo-6,7-dihydro-4H-pyrimido[6,1-a]isoquinolin-9-yloxy]-N,N-diethyl-acetamide] | 100 to 500
CC(C)N(C)C(=O)COc1ccc2c(c1)CCn1c-2cc(OCC2COc3ccccc3O2)nc1=O (stereo not drawn) [compound 67, 2-[2-(2,3-Dihydro-benzo[1,4]dioxin-2-ylmethoxy)-4-oxo-6,7-dihydro-4H-pyrimido[6,1-a]isoquinolin-9-yloxy]-N-isopropyl-N-methyl-acetamide] | 0.01 to 100
O=C(COc1ccc2c(c1)CCn1c-2cc(OCC2COc3ccccc3O2)nc1=O)Nc1ccccc1 (stereo not drawn) [compound 68, 2-[2-(2,3-dihydro-benzo[1,4]dioxin-2-ylmethoxy)-4-oxo-6,7-dihydro-4H-pyrimido[6,1-a]isoquinolin-9-yloxy]-N-phenyl-acetamide] | 0.01 to 100
CCCn1nnnc1COc1ccc2c(c1)CCn1c-2cc(OCC2COc3ccccc3O2)nc1=O (stereo not drawn) [compound 69, 2-(2,3-dihydro-benzo[1,4]dioxin-2-ylmethoxy)-9-(1-propyl-1H-tetrazol-5-ylmethoxy)-6,7-dihydro-pyrimido[6,1-a]isoquinolin-4-one] | 0.01 to 100
CCCCn1nnnc1COc1ccc2c(c1)CCn1c-2cc(OCC2COc3ccccc3O2)nc1=O (stereo not drawn) [compound 70, 9-(1-butyl-1H-tetrazol-5-ylmethoxy)-2-(2,3-dihydro-benzo[1,4]dioxin-2-ylmethoxy)-6,7-dihydro-pyrimido[6,1-a]isoquinolin-4-one] | 0.01 to 100
O=c1nc(OCC2COc3ccccc3O2)cc2n1CCc1cc(OCCN3CCOCC3)ccc1-2 (stereo not drawn) [compound 71, 2-(2,3-dihydro-benzo[1,4]dioxin-2-ylmethoxy)-9-(2-morpholin-4-yl-ethoxy)-6,7-dihydro-pyrimido[6,1-a]isoquinolin-4-one] | 0.01 to 100
N#CCOc1ccc2c(c1)CCn1c-2cc(OCC2COc3ccccc3O2)nc1=O (stereo not drawn) [compound 72, [2-(2,3-dihydro-benzo[1,4]dioxin-2-ylmethoxy)-4-oxo-6,7-dihydro-4H-pyrimido[6,1-a]isoquinolin-9-yloxy]-acetonitrile] | 0.01 to 100
O=c1nc(OCC2COc3ccccc3O2)cc2n1CCc1cc(OCc3ncco3)ccc1-2 (stereo not drawn) [compound 73, 2-(2,3-dihydro-benzo[1,4]dioxin-2-ylmethoxy)-9-(oxazol-2-ylmethoxy)-6,7-dihydro-pyrimido[6,1-a]isoquinolin-4-one] | 100 to 500
O=c1nc(OCC2COc3ccccc3O2)cc2n1CCc1cc(OCc3nnnn3C3CC3)ccc1-2 (stereo not drawn) [compound 75, 9-(1-cyclopropyl-1H-tetrazol-5-ylmethoxy)-2-(2,3-dihydro-benzo[1,4]dioxin-2-ylmethoxy)-6,7-dihydro-pyrimido[6,1-a]isoquinolin-4-one] | 0.01 to 100
C=CCOc1ccc2c(c1)CCn1c-2cc(OCC2COc3ncccc3O2)nc1=O (stereo not drawn) [compound 77, 9-allyloxy-2-(2,3-dihydro-[1,4]dioxino[2,3-b]pyridin-2-ylmethoxy)-6,7-dihydro-pyrimido[6,1-a]isoquinolin-4-one] | 100 to 500
O=C(COc1ccc2c(c1)CCn1c-2cc(OCC2COc3ccccc3O2)nc1=O)NCc1ccccc1 (stereo not drawn) [compound 78, N-benzyl-2-[2-(2,3-dihydro-benzo[1,4]dioxin-2-ylmethoxy)-4-oxo-6,7-dihydro-4H-pyrimido[6,1-a]isoquinolin-9-yloxy]-acetamide] | 0.01 to 100
O=c1nc(OCC2COc3ccccc3O2)cc2n1CCc1cc(OCCN3CCCC3)ccc1-2 (stereo not drawn) [compound 79, 2-(2,3-dihydro-benzo[1,4]dioxin-2-ylmethoxy)-9-(2-pyrrolidin-1-yl-ethoxy)-6,7-dihydro-pyrimido[6,1-a]isoquinolin-4-one] | 100 to 500
O=c1nc(OCC2COc3ccccc3O2)cc2n1CCc1cc(OCCN3CCCCC3)ccc1-2 (stereo not drawn) [compound 80, 2-(2,3-dihydro-benzo[1,4]dioxin-2-ylmethoxy)-9-(2-piperidin-1-yl-ethoxy)-6,7-dihydro-pyrimido[6,1-a]isoquinolin-4-one] | 100 to 500
O=c1nc(OCC2COc3ccccc3O2)cc2n1CCc1cc(OCCCN3CCCCC3)ccc1-2 (stereo not drawn) [compound 81, 2-(2,3-dihydro-benzo[1,4]dioxin-2-ylmethoxy)-9-(3-piperidin-1-yl-propoxy)-6,7-dihydro-pyrimido[6,1-a]isoquinolin-4-one] | 100 to 500
CN(C)CCCOc1ccc2c(c1)CCn1c-2cc(OCC2COc3ccccc3O2)nc1=O (stereo not drawn) [compound 82, 2-(2,3-Dihydro-benzo[1,4]dioxin-2-ylmethoxy)-9-(3-dimethylamino-propoxy)-6,7-dihydro-pyrimido[6,1-a]isoquinolin-4-one] | 500 to 1000
CN1CCCC1CCOc1ccc2c(c1)CCn1c-2cc(OCC2COc3ccccc3O2)nc1=O (stereo not drawn) [compound 83, 2-(2,3-dihydro-benzo[1,4]dioxin-2-ylmethoxy)-9-[2-(1-methyl-pyrrolidin-2-yl)-ethoxy]-6,7-dihydro-pyrimido[6,1-a]isoquinolin-4-one] | 100 to 500
CN1CCN(CCCOc2ccc3c(c2)CCn2c-3cc(OCC3COc4ccccc4O3)nc2=O)CC1 (stereo not drawn) [compound 84, 2-(2,3-dihydro-benzo[1,4]dioxin-2-ylmethoxy)-9-[3-(4-methyl-piperazin-1-yl)-propoxy]-6,7-dihydro-pyrimido[6,1-a]isoquinolin-4-one] | 100 to 500
CCOC(=O)c1ccc(COc2ccc3c(c2)CCn2c-3cc(OCC3COc4ccccc4O3)nc2=O)o1 (stereo not drawn) [compound 85, 5-[2-(2,3-dihydro-benzo[1,4]dioxin-2-ylmethoxy)-4-oxo-6,7-dihydro-4H-pyrimido[6,1-a]isoquinolin-9-yloxymethyl]-furan-2-carboxylic acid ethyl ester] | 0.01 to 100
CC(C)(C)c1nc(COc2ccc3c(c2)CCn2c-3cc(OCC3CCCO3)nc2=O)no1 (stereo not drawn) [compound 87, 9-(5-tert-butyl-[1,2,4]oxadiazol-3-ylmethoxy)-2-(tetrahydro-furan-2-ylmethoxy)-6,7-dihydro-pyrimido[6,1-a]isoquinolin-4-one] | 0.01 to 100
O=c1nc(OCC2CCCO2)cc2n1CCc1cc(OCc3noc(-c4ccccc4)n3)ccc1-2 (stereo not drawn) [compound 88, 9-(5-phenyl-[1,2,4]oxadiazol-3-ylmethoxy)-2-(tetrahydro-furan-2-ylmethoxy)-6,7-dihydro-pyrimido[6,1-a]isoquinolin-4-one] | 0.01 to 100
O=c1nc(OCC2COc3ncccc3O2)cc2n1CCc1cc(OCCN3CCOCC3)ccc1-2 (stereo not drawn) [compound 90, 2-(2,3-dihydro-[1,4]dioxino[2,3-b]pyridin-2-ylmethoxy)-9-(2-morpholin-4-yl-ethoxy)-6,7-dihydro-pyrimido[6,1-a]isoquinolin-4-one] | 100 to 500
